# Source: patent US20250123267A1, “INHIBITORS OF MICROTUBULE POLYGLUTAMYLATION IN MITOSIS FOR USE AS A MEDICAMENT” (FUNDACIÓ CENTRE DE REGULACIÓ GENÒMICA, priority 2021, published 2025)
# Experiments:
# Assay type in all cases: in vivo, Danio rerio
# zebrafish embryos [1] = experiment: Embryonic lethality of morpholino injected zebrafish embryos; conditions: first 4 hours of development
# Description: (§1) Morpholino antisense oligonucleotides were designed and purchased from Gene Tools, LLC. To inhibit ttll11 we used a blocking translation SEQ ID NO: 22 MO ([…]) and a standard control SEQ ID NO: 23 MO ([…]) as a negative control. We injected 2.8 ng of morpholino into one-cell stage embryos.
# (§2) All capped mRNAs were synthesized using mMessage mMachine SP6 (Ambion, AM1340M). For the rescue experiments, […] of ttll11 mRNA was injected together with the indicated MO. […] of E466G mRNA (ttll11 mutated version) was injected together with the indicated MO as a negative control of the rescue experiments. GFP-Ttll11 mRNA was injected into one-cell stage embryos to visualize protein localization.
# zebrafish embryos [2] = experiment: Morphological zebrafish analysis at 36 hpf after morpholino injection
# Description: as §1, §2
# Zebrafish embryos at 36 hpf were anaesthetized with tricaine methane sulfonate (MS-222, Sigma Aldrich) The morphological phenotype was evaluated on site with an Olympus SZX16 scope equipped with an Olympus DP73 camera. Representative images were analyzed with ImageJ.
# zebrafish embryos [3] = experiment: Chromosome segregation in blastula stage zebrafish embryos (live and fixed imaging)
# Description: as §1
# Zebrafish embryos at the sphere stage (2.5-4 hpf) were dechorionated and incubated overnight at RT shacking in the microtubule fixative solution (20). The MT-fixative was discarded, and the embryos were put in methanol at −20° C. overnight. After fixation was completed zebrafish embryos were transferred in a clean tube and washed 3 times during 5 min with tergitol at room temperature for rehydration. Embryos were then moved to a well of a 96-well plate and an overnight wash with the anti-autofluorescence buffer (PBS 1×, 100 mM NaBH4) was performed at RT gently shacking. Buffer in the well was changed with TBS 1× for 5 extensive washes.
# Embryos underwent the blocking step with TBS 1× with 2% BSA for 30 minutes RT gently shacking. Anti-polyE (1.1 μg/ml, home-made) and -β-tubulin (clone E7; Hybridoma Bank at University of Iowa) primary antibodies were added both at 1:200 dilution and left ON at 4° C. gently shacking. […]
# Fixed embryos were imaged in glass bottom Mattek dishes using a 63× oil-immersion 1.4 NA objective on a TCS SP5 inverted Leica confocal microscope. Laser intensity used changed through experiments according to the tubulin levels detected.
# For zfTTLL11 localization experiments zebrafish eggs were fertilized, collected and microinjected with zfTTLL11 mRNA with a micromanipulator (M3301R, WPI (World precision instruments). The quantity injected are relative to the ones specified in “Morpholinos, mRNA synthesis and microinjection” section, according to de experiment. Embryos at sphere stage were manually dechorionated and moved in a tube containing low melting agarose at 42° C. diluted in TBS 1× and immediately in a Mattek dish with 7 mm diameter glass bottom and oriented with epithelial layer cells toward the glass slide before the agarose solidified. […]
# [4] = 36 hpf, injected at one-cell stage
substance,measurement,setting,value
"MO-1: blocking translation morpholino against zebrafish ttll11, SEQ ID NO: 22 (CGGCTGATTTGTTATCTCATCTAGG) (all phosphorodiamidate morpholino (PMO))",embryonic lethality,zebrafish embryos [1],increase of embryonic lethality
same,phenotype Frequency Mild (%),zebrafish embryos [2]; [4],28.6%
same,phenotype Frequency Normal (%),zebrafish embryos [2]; [4],14.3%
same,phenotype Frequency Severe (%),zebrafish embryos [2]; [4],57.1%
same,embryos with developmental defects,"zebrafish embryos [2]; injected embryos, mild tilted tails to gross abnormalities",60%
same,embryos with at least one anaphase cell with a lagging chromosome,"zebrafish embryos [3]; blastula stage, 4D time-lapse imaging",Most
same,chromosome segregation fidelity in fixed embryos,"zebrafish embryos [3]; fixed embryos, anaphase cells with lagging chromosomes",compromised
same,cells with micronuclei,zebrafish embryos [3]; injected embryos,many cells with micronuclei
